Data reported in ChEMBL document CHEMBL1201862, “PubChem BioAssay data set” (2004).
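Results reflect a 48-hour exposure of cells in 96-well plates to compound at five concentrations. The concentration for 50% growth inhibition is given as GI50.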 The source made the active and inactive calls. Cut-off read from the data, not from the text of the source: active = GI50 up to about 1.1 µM and inactive = higher.

Columns and labels:
Test in all cases: NCI-60 cell line screen, 48 h
[1] = test system: UACC-257
[2] = test system: A498
[3] = test system: OVCAR-5
[4] = test system: SNB-75
[5] = test system: NCI-H226
[6] = test system: LOX IMVI
[7] = test system: ACHN
[8] = test system: SF-539
[9] = test system: EKVX
[10] = test system: UO-31
[11] = test system: HL-60
[12] = test system: SK-MEL-2
[13] = test system: Malme-3M
[14] = test system: SF-295
[15] = test system: OVCAR-4
[16] = test system: 786-0
[17] = test system: SK-MEL-28
[18] = test system: K562
[19] = test system: SNB-19
[20] = test system: SR

Row | SMILES | GI50 [1] | GI50 [2] | GI50 [3] | GI50 [4] | GI50 [5] | GI50 [6] | GI50 [7] | GI50 [8] | GI50 [9] | GI50 [10] | GI50 [11] | GI50 [12] | GI50 [13] | GI50 [14] | GI50 [15] | GI50 [16] | GI50 [17] | GI50 [18] | GI50 [19] | GI50 [20]
1 | COC(=O)/C(=N\NC(=O)c1ccccc1O)C(C#N)c1ccccc1 (configuration not stated) | 25.9 µM (inactive) | > 25.9 µM (inactive) | 20.9 µM (inactive) | 22.5 µM (inactive) | 12.7 µM (inactive) | 19.4 µM (inactive) | 19.7 µM (inactive) | 14.8 µM (inactive) | 18.4 µM (inactive) | 12.9 µM (inactive) | 16.3 µM (inactive) | > 50 µM (inactive) | 21.4 µM (inactive) | 22.1 µM (inactive) | > 43.2 µM (inactive) | 17.4 µM (inactive) | > 50 µM (inactive) | 16.4 µM (inactive) | 23.2 µM (inactive) | 
2 | CC(=O)Oc1c2oc3cc(O)c(O)cc3c2c(OC(C)=O)c2oc3cc(O)c(O)cc3c12 [POLYOZELLIN] | 19.4 µM (inactive) |  | 25.5 µM (inactive) | 15.8 µM (inactive) | 19.2 µM (inactive) | 24.5 µM (inactive) | 20.8 µM (inactive) | 23 µM (inactive) | 20.6 µM (inactive) | 21 µM (inactive) | 3.08 µM (inactive) | 20.5 µM (inactive) | 17.1 µM (inactive) | 16.7 µM (inactive) | 19.8 µM (inactive) | 25.2 µM (inactive) | 21.1 µM (inactive) | 19.1 µM (inactive) | 23.7 µM (inactive) | 4.4 µM (inactive)
3 | O=S(=O)(O)c1ccc2c(/N=N/c3ccccc3Cl)c(O)ccc2c1 | > 100 µM (inactive) | > 100 µM (inactive) | > 100 µM (inactive) | > 100 µM (inactive) |  | > 100 µM (inactive) | > 100 µM (inactive) |  | > 100 µM (inactive) | > 100 µM (inactive) |  | > 100 µM (inactive) | > 100 µM (inactive) | > 100 µM (inactive) | > 100 µM (inactive) | > 100 µM (inactive) | > 100 µM (inactive) | > 100 µM (inactive) | > 100 µM (inactive) | > 100 µM (inactive)
4 | COc1ccc(/C=C/c2cc(OC)c(OC)c(OC)c2)cc1 | > 100 µM (inactive) | 3.4 µM (inactive) | 1.85 µM (inactive) | 3.43 µM (inactive) | 5.61 µM (inactive) | 5.52 µM (inactive) | 5.98 µM (inactive) | 4.29 µM (inactive) | 24.2 µM (inactive) | 4.68 µM (inactive) | 2.75 µM (inactive) | 2.36 µM (inactive) | 3.27 µM (inactive) | 2.73 µM (inactive) | 41.5 µM (inactive) | 11.1 µM (inactive) | 18.7 µM (inactive) | 3.2 µM (inactive) | 13.6 µM (inactive) | 
5 | O=c1c2ccccc2n2n1CC(O)C2 (configuration not stated) | > 100 µM (inactive) |  | > 100 µM (inactive) | > 100 µM (inactive) | > 100 µM (inactive) | > 100 µM (inactive) | 2.14 µM (inactive) | > 100 µM (inactive) | > 100 µM (inactive) | > 100 µM (inactive) | > 100 µM (inactive) | > 100 µM (inactive) | 4.56 µM (inactive) | > 100 µM (inactive) | > 100 µM (inactive) | > 100 µM (inactive) | > 100 µM (inactive) | > 100 µM (inactive) | > 100 µM (inactive) | > 100 µM (inactive)
6 | CCOC(=O)Nn1c(CC#N)nnc1Cc1ccccc1 | > 100 µM (inactive) |  | > 100 µM (inactive) | > 100 µM (inactive) | > 100 µM (inactive) |  | > 100 µM (inactive) | > 100 µM (inactive) |  | > 100 µM (inactive) | > 100 µM (inactive) | > 100 µM (inactive) | > 100 µM (inactive) | > 100 µM (inactive) |  | > 100 µM (inactive) | > 100 µM (inactive) | > 100 µM (inactive) | > 100 µM (inactive) | > 100 µM (inactive)
7 | O=C(O/C(=C(/N=N/c1ccccc1)c1ccccc1)c1ccccc1)c1ccccc1 | > 100 µM (inactive) |  | > 100 µM (inactive) | 87.3 µM (inactive) | > 100 µM (inactive) |  | > 100 µM (inactive) | > 100 µM (inactive) | > 100 µM (inactive) | > 100 µM (inactive) |  | > 100 µM (inactive) | > 100 µM (inactive) | > 100 µM (inactive) | > 100 µM (inactive) | > 100 µM (inactive) | > 100 µM (inactive) | 48.1 µM (inactive) | > 100 µM (inactive) | > 100 µM (inactive)
8 | CCOC(=O)C(NC(=O)OC(C)(C)C)C(=O)OCC | > 100 µM (inactive) |  | > 100 µM (inactive) | > 100 µM (inactive) |  |  | > 100 µM (inactive) |  | > 100 µM (inactive) | > 100 µM (inactive) |  | > 100 µM (inactive) |  |  | > 100 µM (inactive) | > 100 µM (inactive) | > 100 µM (inactive) | > 100 µM (inactive) | > 100 µM (inactive) | > 100 µM (inactive)
9 | Cc1ccc(-c2nc(N/N=C/c3ccc(O)cc3)c3ccccc3n2)cc1 | 4.06 µM (inactive) |  | 20.3 µM (inactive) | 16.8 µM (inactive) | 21.5 µM (inactive) | 13.2 µM (inactive) | 7.21 µM (inactive) | 27.3 µM (inactive) | 3.98 µM (inactive) | 5.47 µM (inactive) | 17.2 µM (inactive) | 15.8 µM (inactive) | 13.8 µM (inactive) | 17.9 µM (inactive) | 1.55 µM (inactive) | 22.8 µM (inactive) | 17.8 µM (inactive) | 22.8 µM (inactive) | 26.6 µM (inactive) | 39.4 µM (inactive)
10 | COc1ccc(C2c3cc4c(cc3OC(N3CCOCC3)C2C)OCO4)c(OC)c1OC (configuration not stated) | 15.9 µM (inactive) |  | 17.1 µM (inactive) |  |  | 14.5 µM (inactive) | 16.1 µM (inactive) | 12.6 µM (inactive) | 24.2 µM (inactive) | 6.81 µM (inactive) |  | 12.2 µM (inactive) |  | 5.97 µM (inactive) |  | 17.1 µM (inactive) | 14.2 µM (inactive) | 4.34 µM (inactive) | 10.7 µM (inactive) | 9.06 µM (inactive)
11 | O=C(N/C(=C\c1cc(Cl)ccc1Cl)c1nc2ccccc2[nH]1)c1ccccc1 |  |  | 52.2 µM (inactive) |  |  |  | 33.3 µM (inactive) | 39.3 µM (inactive) | 28.5 µM (inactive) | 20.2 µM (inactive) | 21.2 µM (inactive) | 52 µM (inactive) | 19.7 µM (inactive) | 24.5 µM (inactive) | 30.1 µM (inactive) | 18 µM (inactive) | 45.3 µM (inactive) | 24.4 µM (inactive) | 46.9 µM (inactive) | 24.4 µM (inactive)
12 | CN(CCN(C)C(=S)NN)C(=S)NN | > 100 µM (inactive) |  | > 100 µM (inactive) | > 100 µM (inactive) |  | > 100 µM (inactive) | > 100 µM (inactive) |  | > 100 µM (inactive) | > 100 µM (inactive) | > 100 µM (inactive) | > 100 µM (inactive) | > 100 µM (inactive) | > 100 µM (inactive) | > 100 µM (inactive) | > 100 µM (inactive) | > 100 µM (inactive) |  | > 100 µM (inactive) | > 100 µM (inactive)
13 | CC1=C(C)CC2C(=O)N(c3cc(C(C)(C)C)ccc3C(C)(C)C)C(=O)C2C1 (configuration not stated) | > 100 µM (inactive) |  | > 100 µM (inactive) | 22.3 µM (inactive) | > 100 µM (inactive) | > 100 µM (inactive) | 5.38 µM (inactive) | 78.3 µM (inactive) | > 100 µM (inactive) | > 100 µM (inactive) | > 100 µM (inactive) | > 100 µM (inactive) | 4.55 µM (inactive) | 48.2 µM (inactive) | > 100 µM (inactive) | 64.9 µM (inactive) | > 100 µM (inactive) | > 100 µM (inactive) | 23.1 µM (inactive) | > 100 µM (inactive)
14 | CCOC(=O)c1nc2ccc(Cl)cc2c2c1Cc1ccccc1-2 | 75.3 µM (inactive) |  | > 100 µM (inactive) | 70 µM (inactive) | > 100 µM (inactive) | > 100 µM (inactive) | > 100 µM (inactive) | > 100 µM (inactive) | > 100 µM (inactive) | > 100 µM (inactive) |  | > 100 µM (inactive) |  | > 100 µM (inactive) | > 100 µM (inactive) | > 100 µM (inactive) | > 100 µM (inactive) | > 100 µM (inactive) | > 100 µM (inactive) | > 100 µM (inactive)
15 | C=CC/N=C1/N=C(CC(=O)OCC)CS1 | > 100 µM (inactive) | > 100 µM (inactive) | > 100 µM (inactive) | > 100 µM (inactive) | > 100 µM (inactive) | > 100 µM (inactive) | > 100 µM (inactive) | > 100 µM (inactive) | > 100 µM (inactive) | > 100 µM (inactive) | > 100 µM (inactive) | > 100 µM (inactive) | > 100 µM (inactive) | > 100 µM (inactive) | > 100 µM (inactive) | > 100 µM (inactive) | > 100 µM (inactive) | > 100 µM (inactive) | > 100 µM (inactive) | 
16 | CCCSc1ccc2[nH]c(N3C(=O)/C(=C/c4ccc(SC)cc4)N=C3c3ccccc3)cc2c1 | 17.3 µM (inactive) | 26.9 µM (inactive) | > 50 µM (inactive) | > 34.4 µM (inactive) | > 50 µM (inactive) | 35.7 µM (inactive) | > 50 µM (inactive) | 14 µM (inactive) | 18.2 µM (inactive) | > 35.8 µM (inactive) | 9.14 µM (inactive) | 24.4 µM (inactive) | 40.6 µM (inactive) | 29.7 µM (inactive) | 19.6 µM (inactive) | 26.2 µM (inactive) | 34.3 µM (inactive) | 0.355 µM (active) | 29.1 µM (inactive) | 
